Data published in BindingDB's records for PubMed 30125720 (Southern Medical University, 2018).

test: Inhibition of TGF-beta (unknown origin)

SMILES	IC50
O=c1[nH]cc(-c2cccc(CO)c2)cc1-c1nc2cc(N3CCNCC3)ccc2[nH]1	970 nM
CC(=O)Nc1cc(Nc2nc(-c3ccc(F)c(C)n3)nc3[nH]cnc23)ccn1	0.34 nM
CCc1cnn(-c2cccc(C)n2)c1-c1cc2cnccc2s1 [US9090625, 4]	4.3 nM
